# Measured values reported in patent US5302399A, “Slow-releasing pharmaceuticals prepared with alginic acid” (Snow Brand Milk Products Co., Ltd., priority 1988, dated 1994).
# Assays:
# in vivo = assay: in vivo; set-up: species or system Male beagle dogs; conditions: dog, po
# From the text: Water was given ad libitum.
# Water was given ad libitum during the test period.
# In this test, alginic acid gel beads prepared using the low viscosity alginic acid gel beads (IL2, Kimizu Chemicals) were used.
# clinical = assay: clinical; set-up: species or system healthy human adults; conditions: in vivo, po
smiles,measurement,setting,value
"CC(C)NCC(O)COc1cccc2[nH]ccc12 (stereo not shown) [Pindolol powder, pindolol]",AUC at 6 h,in vivo; 2.5 mg/kg,238 ng·h/mL
same,MRT at 6 h,in vivo; 2.5 mg/kg,1.74 h
same,AUC at 12 h,in vivo; 5 mg/kg,311 ng·h/mL
same,MRT at 12 h,in vivo; 5 mg/kg,1.98 h
same,MRT,clinical; human,3.82 ± 0.32 h
same,Tmax,clinical; human,~1 h
same,VRT,clinical,7.44 ± 0.54 h^2
